In patent publication US20110312934A1, “2-ALKYL-6-CYCLOAMINO-3-(PYRIDIN-4-YL)IMIDAZO[1,2-B]-PYRIDAZINE DERIVATIVES, PREPARATION THEREOF, AND THERAPEUTIC APPLICATION THEREOF” (SANOFI-AVENTIS, priority 2008, published 2011):

Legend:
human CK1 delta = molecular target: T1, human CK1 delta (Homo sapiens, UniProt P48730); experiment: FRET Z'Lyte kinase assay, CK1 delta; assay type: biochemical; conditions: peptide substrate SER/THR 11 2 μM, ATP 4 times the KM, read-out: CK1 delta Cl50
T1 construct: purchased Invitrogen Corporation PV3665
T1 sequence (P48730 whole entry): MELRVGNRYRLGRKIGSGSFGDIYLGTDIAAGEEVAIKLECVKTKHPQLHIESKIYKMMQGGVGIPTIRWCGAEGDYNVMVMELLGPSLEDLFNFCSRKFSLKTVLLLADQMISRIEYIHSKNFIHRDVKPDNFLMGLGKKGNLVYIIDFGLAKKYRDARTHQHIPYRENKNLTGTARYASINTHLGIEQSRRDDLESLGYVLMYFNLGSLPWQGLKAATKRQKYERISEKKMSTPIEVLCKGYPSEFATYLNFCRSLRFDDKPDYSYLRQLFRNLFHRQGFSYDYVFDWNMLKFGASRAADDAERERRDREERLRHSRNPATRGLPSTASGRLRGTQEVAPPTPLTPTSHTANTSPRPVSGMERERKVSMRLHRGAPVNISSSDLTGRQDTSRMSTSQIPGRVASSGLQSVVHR
From the text: The capacity of the compounds of the invention to inhibit the phosphorylation of casein by casein kinase 1 epsilon and delta may be evaluated using a FRET (Fluorescence Resonance Energy Transfer) fluorescence test with the aid of the Z'Lyte™ kinase assay Kit (reference PV3670; Invitrogen Corporation™) according to the manufacturer's instructions.
The casein kinases 1 used are obtained from Invitrogen Corporation (human CK1 epsilon PV3500 and human CK1 delta PV3665).
A peptide substrate, labelled at both ends with a fluorophore donor group (coumarin) and a fluorophore acceptor group (fluorescein), constituting a FRET system is phosphorylated in the presence of ATP by casein kinase 1 epsilon or delta in the presence of increasing concentrations of compounds of the invention.
The mixture is treated with a site-specific protease that specifically cleaves the peptide substrate to form two fluorescent fragments having a large fluorescence emission ratio.
The fluorescence observed is thus related to the capacity of the products of the invention to inhibit the phosphorylation of the peptide substrate by casein kinase 1 epsilon or casein kinase 1 delta. […]
The emitted fluorescence is measured at wavelengths of 445 and 520 nm (excitation at 400 nm).

[1] = molecular target: T2, casein kinase 1 epsilon (CK1 epsilon) (Homo sapiens, UniProt P49674); experiment: Filter-plate assay of ATP-33P, inhibition of phosphorylation of casein by CK1 epsilon; assay type: biochemical; conditions: ATP-33P filtration, cold ATP 10 μM final, 2 hours at ambient temperature, read-out: CK1 epsilon Cl50
T2 construct: Invitrogen Corporation (alternative)
T2 sequence (P49674 whole entry): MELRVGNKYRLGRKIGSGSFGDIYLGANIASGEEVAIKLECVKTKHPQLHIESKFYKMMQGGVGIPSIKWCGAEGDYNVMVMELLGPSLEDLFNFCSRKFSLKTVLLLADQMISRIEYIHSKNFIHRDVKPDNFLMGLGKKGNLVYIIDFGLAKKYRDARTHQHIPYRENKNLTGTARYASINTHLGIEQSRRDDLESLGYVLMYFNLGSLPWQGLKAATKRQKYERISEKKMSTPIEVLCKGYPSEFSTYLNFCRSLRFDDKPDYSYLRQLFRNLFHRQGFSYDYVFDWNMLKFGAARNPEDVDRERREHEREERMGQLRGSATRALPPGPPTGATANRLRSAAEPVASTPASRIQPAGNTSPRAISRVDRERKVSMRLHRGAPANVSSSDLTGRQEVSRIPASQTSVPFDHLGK
Description: The capacity of the compounds of the invention to inhibit the phosphorylation of casein by casein kinase 1 epsilon and delta may be evaluated according to the procedure described in US 2005/0131012.
Filter-Plate Assay of ATP-^33P for the Screening of CK1 Epsilon Inhibitors:
The effect of the compounds on inhibition of the phosphorylation of casein by the enzyme casein kinase 1 epsilon (CK1 epsilon) is measured, using a casein assay with filtration of ATP-^33P in vitro.
Casein kinase 1 epsilon (0.58 mg/ml) is obtained via fermentation and purification processes performed according to methods that are well known to those skilled in the art, or may also be obtained from Invitrogen Corporation™ (human CK1 epsilon).
The compounds are tested at five different concentrations so as to generate IC50 values, i.e. the concentration at which a compound is capable of inhibiting the enzymatic activity by 50%, or alternatively the percentage of inhibition at a concentration of 10 micromolar.
“U”-bottomed Falcon plates are prepared by placing 5 μl of solutions of the compounds according to the invention at concentrations of 10, 1, 0.1, 0.01 or 0.001 μM in different wells. The solutions of the compounds according to the invention at these various concentrations are prepared by diluting in a test buffer (50 mM Tris, pH 7.5, […], 2 mM DTT and 1 mM EGTA) a stock solution in DMSO at a concentration of 10 mM. Next, 5 μl of dephosphorylated casein are added to a final concentration of 0.2 μg/μl, 20 μl of CK1 epsilon to a final concentration of 3 ng/μl, and 20 μl of ATP-^33P to a final concentration of 0.02 μCi/μl mixed with cold ATP (10 μM final—approximately 2×10^6 CPM per well). The final total test volume per well is equal to 50 μl.
The “U”-bottomed Falcon® test plate mentioned above is vortexed, and then incubated at ambient temperature for 2 hours. After 2 hours, the reaction is stopped by adding an ice-cold solution of 65 μl of ATP (2 mM) prepared in test buffer.
100 μl of the reaction mixture are then transferred from the “U”-bottomed Falcon® plate into Millipore® MAPH filter plates, preimpregnated with 25 μl of ice-cold 100% TCA. […]
The plates are left to dry overnight at ambient temperature. […] The radiation emitted by each well is then measured for 2 minutes in a Packard® Topcount NXT scintillation counter, in which the values of CPM/well are measured.
The percentage inhibition of the capacity of the enzyme to phosphorylate the substrate (casein) is determined for each concentration of compound tested. These inhibition data expressed as percentages are used to calculate the IC50 value for each compound compared with the controls.
The kinetic studies determined the KM value for ATP as being 21 μM in this test system.

[2] = system: Mper1-luc Rat-1 (P2C4) fibroblasts; experiment: Circadian cell assay (mPer1 luciferase reporter, period prolongation); assay type: cell-based; conditions: effective concentration that induced a 1-hour prolongation of the circadian period, interpolated from hyperbolic curve
Description: Mper1-luc Rat-1 (P2C4) fibroblast cultures were prepared by dividing the cultures every 3-4 days (approximately 10-20% of confluence) on 150 cm^2 degassed polystyrene tissue culture flasks (Falcon® #35-5001) and maintained in growth medium [EMEM (Cellgro #10-0,0-CV); 10% foetal bovine serum (FBS; Gibco #16000-044); and 50 I.U./ml of penicillin-streptomycin (Cellgro #30-001-CI)] at 37° C. and under 5% CO2.
Cells obtained from Rat-1 fibroblast cultures at 30-50% of confluence as described above were co-transfected with vectors containing the selection marker for resistance to zeocin for a stable transfection and a luciferase reporter gene controlled by the mPer-1 promoter. After 24 to 48 hours, the cultures were divided on 96-well plates and maintained in growth medium supplemented with 50-100 μg/ml of zeocin (Invitrogen® #45-0430) for 10-14 days. The zeocin-resistant stable transfectants were evaluated for the expression of the reporter by adding 100 μM luciferin (Promega® #E1603®) to the growth medium and by assaying the luciferase activity on a TopCount® scintillation counter (Packard Model #C384V00). The Rat-1 cell clones expressing both zeocin resistance and lucerifase activity controlled by mPer1 were serum-shock synchronized with 50% horse serum [HS (Gibco® #16050-122)] and the activity of the circadian reporter was evaluated. The P2C4 clone of Mper1-luc Rat-1 fibroblasts was selected to test the compound.
Mper1-luc Rat-1 (P2C4) fibroblasts at 40-50% of confluence, obtained according to the protocol described above, were plated out onto 96-well opaque tissue culture plates (Perkin Elmer® #6005680). The cultures are maintained in growth medium supplemented with 100 μg/ml of zeocin (Invitrogen #45-0430) until they reach 100% of confluence (48-72 h). The cultures were then synchronized with 100 μl of synchronization medium [EMEM (Cellgro #10-0,0-CV); 100 I.U./ml of penicillin-streptomycin (Cellgro #30-001-C1); 50% HS (Gibco #16050-122)] for 2 hours at 37° C. and under 5% CO2. After synchronization, the cultures were rinsed with 100 μl of EMEM (Cellgro #10-010-CV) for 10 minutes at ambient temperature. After rinsing, the medium was replaced with 300 μl of CO2 independent medium [CO2I (Gibco #18045-088); 2 mM L-glutamine (Cellgro #25-005-C1); 100 U.I./ml of penicillin-streptomycin (Cellgro #30-001-C1); 100 μM luciferin (Promega #E 1603)]. […]
The two methods produced a virtually identical period estimation on a range of circadian periods. […] The data were analysed by adjusting a hyperbolic curve to the data expressed as change of period (y-axis) as a function of the concentration of the test compound (x-axis) in the XLfit™ software and the CE Delta (t+1 h) was interpolated from this curve.

Row | Structure (SMILES) | IC50 (human CK1 delta) [nM] | IC50 [1] [nM] | CE Delta (t + 1 h) [2] [nM] | melting point [°C]
1 | Cc1nc2ccc(N3C[C@@H](C)N[C@@H](C)C3)nn2c1-c1ccncc1 [Compound 54, 6-(cis-3,5-Dimethylpiperazin-1-yl)-2-methyl-3-pyridin-4-ylimidazo[1,2-b]pyridazine] | < 1 |  |  | 
2 | CC1(C)CN(c2ccc3nc(C4CC4)c(-c4ccnc(F)c4)n3n2)CCN1 [Compound 53, 2-Cyclopropyl-6-(3,3-dimethylpiperazin-1-yl)-3-(2-fluoropyridin-4-yl)imidazo[1,2-b]pyridazine] |  | 292 | 319 | 
3 | Cc1nc2ccc(N3CCC4(CCCNC4)CC3)nn2c1-c1ccncc1 [Compound 78, 9-(2-Methyl-3-pyridin-4-yl-imidazo[1,2-b]pyridazin-6-yl)-2,9-diazaspiro[5.5]undecane] |  | 78 | 515 | 
4 | Cc1nc2ccc(N3CC4CNCC4C3)nn2c1-c1ccncc1 (centres unmarked) [Compound 66, 6-Hexahydropyrrolo[3,4-c]pyrrol-2(1H)-yl-2-methyl-3-pyridin-4-ylimidazo[1,2-b]pyridazine] |  | 13 | 633 | 153 to 155
